What all share (assay): DTP human tumour cell line panel, 48 h
In assay [1] the test system is 786-0 renal.
Assay [2] has as its system COLO 205 colon.
For assay [3], the system named is EKVX NSCLC.
Assay [4] deals with HL-60(TB) leukemia.
The subject of assay [5] is LOX IMVI melanoma.
Assay [6] has as its system NCI-H522 lung.
Assay [7] relates to OVCAR-5 ovarian.
Assay [8] concerns SF-295 CNS.
For assay [9], the system named is SK-MEL-28 melanoma.
Assay [10] relates to SK-MEL-5 melanoma.

The results in this text go back to PubChem BioAssay (NCI).

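Each compound was tested at five concentrations against cells in 96-well plates for 48 hours. The concentration for 50% growth inhibition is given as GI50. TGI: concentration producing complete growth inhibition.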

What is called GI50 is the concentration that inhibits growth by half. In general, TGI refers to the concentration giving total growth inhibition. As for `COc1ccc(-c2cc(-c3ccc(Cl)cc3)nc(SCCCC(=O)NO)n2)cc1OC`, the GI50 is 0.591 µM in assay [1]; 1.73 µM in [2]; 1.04 µM in assay [3]; 2.48 µM in [4]; 0.345 µM in assay [5]; 1.3 µM in assay [6]. Further, the GI50 in assay [7] is 0.931 µM; in assay [8], 0.926 µM; in assay [9], 1.2 µM; in assay [10] it was 1.03 µM. Besides, the TGI in assay [1] amounted to 2.68 µM; in assay [2], 5.06 µM; in assay [3], 8.89 µM; in [4], 8.56 µM; in assay [5] it was 1.44 µM; in [6], 4.05 µM. For the same compound, the TGI in [7] stood at 4.36 µM; in assay [8], 2.75 µM; in assay [9], 2.71 µM; in assay [10] it was 2.4 µM.
As to `Cc1c(Br)c(Br)c2c3c1nc(N1CCNCC1)n3CCC2`, the GI50 in assay [1] is 2.63 µM; in [2], 1.86 µM; in [3], 1.9 µM; in [4], 2.16 µM; in [5], 1.49 µM; in [6] it was 1.49 µM. Also, the GI50 is 1.72 µM in assay [7], 1.86 µM in assay [8], 1.79 µM in [9] and 1.89 µM in assay [10]. In addition, the TGI in assay [1] is 7.33 µM; in [2] it was 3.63 µM; in [3], 4.32 µM; in assay [4], 5.31 µM; in assay [5], 2.94 µM; in [6], 3.14 µM. The total growth inhibition concentration (TGI) came to 3.54 µM in assay [7], 3.68 µM in assay [8], 3.39 µM in assay [9] and 3.42 µM in [10].
Regarding `Cc1cc2c(C(C)C)c(O)c(O)c(/C=N/O)c2c(O)c1-c1c(C)cc2c(C(C)C)c(O)c(O)c(/C=N/O)c2c1O`, the GI50 was 3.22 µM in assay [1]; 2.88 µM in [2]; 1.94 µM in assay [3]; 2.61 µM in assay [4]; 1.53 µM in assay [5]; 1.74 µM in assay [6]. The GI50 in assay [7] was 3.08 µM; in [8] it was 2.61 µM; in assay [9] it was 1.84 µM; in [10] it was 1.43 µM. In addition, the TGI in [1] came to 13.3 µM; in assay [2], 9.72 µM; in assay [3], 11.4 µM; in [4], 10.6 µM; in assay [5] it was 3.47 µM; in [6], 5.47 µM. The TGI in assay [7] was found to be 12.9 µM; in assay [8], 13.3 µM; in assay [9], 6.8 µM; in assay [10], 3.82 µM.
Take `COc1cc2c3c(n(CCCNCCCCN)c(=O)c2cc1OC)-c1cc2c(cc1C3=O)OCO2`: the GI50 was 2.27 µM in [1]; 6.02 µM in [2]; 18.6 µM in assay [3]; 0.335 µM in assay [4]; 0.226 µM in [5]; 5.64 µM in assay [6]. In addition, the GI50 in assay [7] was 13.5 µM; in [8] it was 0.169 µM; in assay [9], 4.49 µM; in assay [10], 2.95 µM. Moreover, the TGI was 20.5 µM in assay [1]; more than 46 µM in assay [2]; 42.7 µM in [3]; 10.1 µM in [5]; more than 100 µM in assay [6]; 41 µM in assay [7]. For the same compound, the concentration for total growth inhibition (TGI) is 16.5 µM in [8], more than 54.2 µM in [9] and 19.2 µM in assay [10].
Regarding `CCN(CC)CCOc1ccc(/C(=C(\C)Cc2ccc(OC)cc2)c2ccc(O)cc2)cc1`, the GI50 in [1] was 1.59 µM; in [2], 1.71 µM; in assay [3] it was 2.08 µM; in assay [4], 1.41 µM; in assay [5], 1.74 µM; in [6] it was 1.89 µM. For the same compound, the GI50 in assay [7] was 2.36 µM; in assay [8] it was 1.69 µM; in assay [9], 1.79 µM; in assay [10] it was 1.63 µM. Moreover, the TGI stood at 3 µM in assay [1]; 3.42 µM in [2]; 6.19 µM in [3]; 3.14 µM in [4]; 3.17 µM in assay [5]; 3.82 µM in assay [6]. The TGI came to 6.79 µM in assay [7], 3.3 µM in assay [8], 3.33 µM in assay [9] and 3 µM in assay [10].
Take `CC(C)(C)c1cc(Cc2ccc(S(C)(=O)=O)cc2)c(O)c(C(C)(C)C)c1`: the TGI stood at 29.6 µM in assay [1]; 28.4 µM in assay [3]; 42 µM in assay [4]; 27.7 µM in assay [5]; 24.9 µM in assay [6]; 27.4 µM in assay [7]. In addition, the concentration for total growth inhibition (TGI) in assay [8] was 25.8 µM; in [9] it was 32 µM; in assay [10] it was 30 µM.
For the compound `CCOC(=O)C1(C)C2=CC=C(O2)C(C)(C)C2=CC=C(O2)C(C)(C)C2=CC=C(O2)C(C)(C)C2=CC=C1O2`, the TGI in assay [1], in assay [2], in [3], in assay [4], in assay [5] and in assay [6] was more than 100 µM each time. The TGI in assay [7], in assay [8] and in assay [9] was more than 100 µM throughout.
For `COc1ccc(/C=C/C(=O)C(=O)/C=C/c2ccc(OC)c(OC)c2)cc1OC`, the GI50 in [1] is 2.28 µM; in assay [2] it was 1.9 µM; in assay [3] it was 5 µM; in assay [4] it was 2.36 µM; in assay [5] it was 1.46 µM; in assay [6] it was 3.75 µM. The GI50 in [7] is 2.5 µM; in [8], 3.05 µM; in assay [10] it was 2.14 µM. For the same compound, the TGI in assay [1] is 7.88 µM; in assay [2] it was 4.95 µM; in [3], more than 100 µM; in assay [4] it was 16.9 µM; in [5] it was 3.21 µM; in assay [6], 19.3 µM. Besides, the figures for the TGI in assay [7], in assay [8] and in assay [10] were 8.08 µM, 31.2 µM and 6.15 µM, respectively.
As for `Oc1ccc(I)c2cccnc12`, the TGI in [1] is more than 100 µM; in assay [2] it was 79 µM; in [3] it was 65.2 µM; in assay [4], 5.76 µM; in assay [5], 46.3 µM; in assay [6] it was 7.2 µM. Besides, the TGI is more than 100 µM in [7], 30.1 µM in assay [8] and more than 100 µM in [9].
